Tests used:
[1] = Blood clearance in Sprague-Dawley rat at 2.2 mg/kg, iv by LC-MS/MS analysis; type: ADME, organism-based; design: dose 2.2 mg/kg, route intravenous; settings: whole blood
[2] = molecular target: T1, Eukaryotic translation initiation factor 2-alpha kinase 3 (Homo sapiens, UniProt Q9NZJ5); experiment: Inhibition of thapsigargin-induced autophosphorylation of PERK in human A549 cells preincubated for 1 hr followed by thapsigargin-induction measured after 1 hr by Western blotting analysis; type: cell-based
T1 sequence (Q9NZJ5 whole entry): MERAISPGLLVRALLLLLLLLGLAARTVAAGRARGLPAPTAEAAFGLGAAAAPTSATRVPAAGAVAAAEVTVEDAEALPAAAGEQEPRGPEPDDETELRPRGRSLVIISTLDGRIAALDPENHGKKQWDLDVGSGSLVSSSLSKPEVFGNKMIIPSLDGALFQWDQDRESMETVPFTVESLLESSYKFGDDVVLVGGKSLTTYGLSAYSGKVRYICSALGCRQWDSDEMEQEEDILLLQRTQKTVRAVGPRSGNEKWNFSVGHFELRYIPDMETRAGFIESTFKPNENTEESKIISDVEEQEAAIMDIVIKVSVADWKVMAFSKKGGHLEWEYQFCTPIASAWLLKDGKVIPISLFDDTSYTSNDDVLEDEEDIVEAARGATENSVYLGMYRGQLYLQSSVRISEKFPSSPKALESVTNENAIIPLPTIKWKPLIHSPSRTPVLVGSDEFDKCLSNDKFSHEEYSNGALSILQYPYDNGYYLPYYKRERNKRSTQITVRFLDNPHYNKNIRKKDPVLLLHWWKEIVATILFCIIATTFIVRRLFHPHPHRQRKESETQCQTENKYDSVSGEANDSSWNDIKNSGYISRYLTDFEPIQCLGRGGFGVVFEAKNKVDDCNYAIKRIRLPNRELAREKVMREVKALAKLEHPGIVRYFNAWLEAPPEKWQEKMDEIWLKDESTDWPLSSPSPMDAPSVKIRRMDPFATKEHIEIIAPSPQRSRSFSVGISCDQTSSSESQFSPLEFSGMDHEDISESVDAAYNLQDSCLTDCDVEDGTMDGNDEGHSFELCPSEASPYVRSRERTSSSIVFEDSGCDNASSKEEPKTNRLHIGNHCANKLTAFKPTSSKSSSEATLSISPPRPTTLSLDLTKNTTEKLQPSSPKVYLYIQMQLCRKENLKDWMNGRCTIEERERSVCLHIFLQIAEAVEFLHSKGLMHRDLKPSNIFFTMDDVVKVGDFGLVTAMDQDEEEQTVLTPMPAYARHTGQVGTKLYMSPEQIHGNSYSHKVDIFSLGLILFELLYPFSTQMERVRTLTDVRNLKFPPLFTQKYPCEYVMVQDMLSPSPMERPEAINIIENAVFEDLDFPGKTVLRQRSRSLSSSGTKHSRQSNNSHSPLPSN

[3] = molecular target: T1, Eukaryotic translation initiation factor 2-alpha kinase 3; experiment: Inhibition of GST-tagged PERK cytoplasmic domain (536 to 1116) (unknown origin) assessed as biotinylated His6-tagged EIF2alpha phosphorylation preincubated for 30 mins followed by ATP and eIF2alpha addition measured after 1 hr by HTRF assay
[4] = molecular target: eIF-2-alpha kinase GCN2 (Homo sapiens, UniProt Q9P2K8); experiment: Inhibition of GCN2 (unknown origin) assessed as EIF2AK4 phosphorylation
[5] = molecular target: Interferon-induced, double-stranded RNA-activated protein kinase (Homo sapiens, UniProt P19525); experiment: Inhibition of PKR (unknown origin) assessed as EIF2AK2 phosphorylation
[6] = molecular target: Eukaryotic translation initiation factor 2-alpha kinase 1 (Homo sapiens, UniProt Q9BQI3); experiment: Inhibition of HRI (unknown origin) assessed as EIF2AK1 phosphorylation
[7] = molecular target: T2, Cytochrome P450 3A4 (Homo sapiens, UniProt P08684); experiment: Inhibition of CYP3A4 in human liver microsomes using nifedipine as substrate after 5 to 60 mins by LC-MS/MS analysis; type: ADME, Microsome
[8] = molecular target: T3, Cytochrome P450 2C8 (Homo sapiens, UniProt P10632); experiment: Inhibition of CYP2C8 in human liver microsomes using paclitaxel as substrate after 5 to 60 mins by LC-MS/MS analysis; type: ADME, Microsome
T3 sequence (P10632 whole entry): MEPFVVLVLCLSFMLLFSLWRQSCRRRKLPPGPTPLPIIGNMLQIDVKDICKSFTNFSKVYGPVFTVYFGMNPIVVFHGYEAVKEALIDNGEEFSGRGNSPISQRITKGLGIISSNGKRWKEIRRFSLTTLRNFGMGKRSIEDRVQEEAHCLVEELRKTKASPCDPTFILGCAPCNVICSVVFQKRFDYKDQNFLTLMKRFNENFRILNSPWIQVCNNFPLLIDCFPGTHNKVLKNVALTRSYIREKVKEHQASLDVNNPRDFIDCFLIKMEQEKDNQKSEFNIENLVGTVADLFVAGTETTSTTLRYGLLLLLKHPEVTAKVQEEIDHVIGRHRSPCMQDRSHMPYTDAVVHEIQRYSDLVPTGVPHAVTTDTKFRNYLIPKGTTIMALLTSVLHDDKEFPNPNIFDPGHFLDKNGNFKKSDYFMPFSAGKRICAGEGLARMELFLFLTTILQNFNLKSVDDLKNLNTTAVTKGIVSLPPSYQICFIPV

[9] = molecular target: T2, Cytochrome P450 3A4; experiment: Inhibition of CYP3A4 in human liver microsomes using midazolam as substrate after 5 to 60 mins by LC-MS/MS analysis; type: ADME, Microsome
[10] = molecular target: Cytochrome P450 2D6 (Homo sapiens, UniProt P10635); experiment: Inhibition of CYP2D6 in human liver microsomes using bufuralol as substrate after 5 to 60 mins by LC-MS/MS analysis; type: ADME, Microsome
[11] = molecular target: Cytochrome P450 2C19 (Homo sapiens, UniProt P33261); experiment: Inhibition of CYP2C19 in human liver microsomes using mephenytoin as substrate after 5 to 60 mins by LC-MS/MS analysis; type: ADME, Microsome
[12] = molecular target: Cytochrome P450 2C9 (Homo sapiens, UniProt P11712); experiment: Inhibition of CYP2C9 in human liver microsomes using diclofenac as substrate after 5 to 60 mins by LC-MS/MS analysis; type: ADME, Microsome
[13] = molecular target: T4, Cytochrome P450 1A2 (Homo sapiens, UniProt P05177); experiment: Inhibition of CYP1A2 in human liver microsomes using phenacetin as substrate after 5 to 60 mins by LC-MS/MS analysis; type: ADME, Microsome
T4 sequence (P05177 whole entry): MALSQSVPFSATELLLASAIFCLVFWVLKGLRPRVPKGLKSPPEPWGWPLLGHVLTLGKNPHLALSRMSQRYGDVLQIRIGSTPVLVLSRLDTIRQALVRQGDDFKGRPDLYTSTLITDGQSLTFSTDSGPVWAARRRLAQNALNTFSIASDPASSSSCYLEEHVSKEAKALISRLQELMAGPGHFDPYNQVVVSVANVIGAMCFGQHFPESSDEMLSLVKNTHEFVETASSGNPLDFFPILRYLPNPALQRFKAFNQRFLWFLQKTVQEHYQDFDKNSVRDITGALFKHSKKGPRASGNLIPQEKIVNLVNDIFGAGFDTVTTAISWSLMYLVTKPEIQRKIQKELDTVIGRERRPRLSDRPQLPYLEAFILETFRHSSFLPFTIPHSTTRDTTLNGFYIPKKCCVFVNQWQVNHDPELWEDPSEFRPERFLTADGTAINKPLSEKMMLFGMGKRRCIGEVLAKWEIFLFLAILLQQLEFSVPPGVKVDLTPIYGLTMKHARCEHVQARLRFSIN

T2 sequence (P08684 whole entry): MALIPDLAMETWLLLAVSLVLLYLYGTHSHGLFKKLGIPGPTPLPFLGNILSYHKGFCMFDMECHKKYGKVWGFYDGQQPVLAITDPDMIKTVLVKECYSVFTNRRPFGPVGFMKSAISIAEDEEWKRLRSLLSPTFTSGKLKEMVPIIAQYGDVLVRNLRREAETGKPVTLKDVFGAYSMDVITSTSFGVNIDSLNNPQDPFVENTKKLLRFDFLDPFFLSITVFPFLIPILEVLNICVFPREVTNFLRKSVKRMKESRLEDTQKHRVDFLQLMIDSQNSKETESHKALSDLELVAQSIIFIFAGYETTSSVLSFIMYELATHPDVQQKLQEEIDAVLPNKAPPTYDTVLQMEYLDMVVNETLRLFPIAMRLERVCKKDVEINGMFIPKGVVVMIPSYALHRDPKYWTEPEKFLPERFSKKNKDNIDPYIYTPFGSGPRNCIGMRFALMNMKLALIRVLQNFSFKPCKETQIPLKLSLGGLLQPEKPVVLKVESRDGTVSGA
Cytochrome P450 2C19, sequence (P33261 whole entry): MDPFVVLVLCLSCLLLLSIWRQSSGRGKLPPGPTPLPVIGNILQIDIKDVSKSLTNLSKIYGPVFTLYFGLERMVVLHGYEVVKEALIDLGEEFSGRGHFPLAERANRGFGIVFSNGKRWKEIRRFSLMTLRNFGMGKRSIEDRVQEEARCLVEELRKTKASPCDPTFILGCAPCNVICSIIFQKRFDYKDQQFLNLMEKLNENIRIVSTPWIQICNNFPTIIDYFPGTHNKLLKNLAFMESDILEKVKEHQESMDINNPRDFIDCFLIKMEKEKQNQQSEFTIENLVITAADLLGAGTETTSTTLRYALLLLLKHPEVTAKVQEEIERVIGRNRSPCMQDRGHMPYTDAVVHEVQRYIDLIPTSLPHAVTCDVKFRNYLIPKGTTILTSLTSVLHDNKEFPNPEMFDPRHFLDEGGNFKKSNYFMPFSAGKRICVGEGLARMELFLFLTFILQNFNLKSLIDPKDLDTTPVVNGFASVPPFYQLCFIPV
Cytochrome P450 2C9, sequence (P11712 whole entry): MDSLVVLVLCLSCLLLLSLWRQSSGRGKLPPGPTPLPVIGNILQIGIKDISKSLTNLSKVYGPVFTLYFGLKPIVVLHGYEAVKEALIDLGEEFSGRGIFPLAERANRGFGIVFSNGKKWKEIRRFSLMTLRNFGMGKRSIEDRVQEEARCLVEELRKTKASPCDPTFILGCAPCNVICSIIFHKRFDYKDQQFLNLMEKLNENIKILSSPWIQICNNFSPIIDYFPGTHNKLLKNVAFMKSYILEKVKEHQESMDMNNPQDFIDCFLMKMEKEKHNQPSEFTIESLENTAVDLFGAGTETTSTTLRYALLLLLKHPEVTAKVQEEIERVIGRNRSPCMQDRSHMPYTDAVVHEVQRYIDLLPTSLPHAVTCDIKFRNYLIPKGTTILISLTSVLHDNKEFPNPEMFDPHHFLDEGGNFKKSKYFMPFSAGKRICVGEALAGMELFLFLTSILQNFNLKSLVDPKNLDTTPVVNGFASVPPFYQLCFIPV
Cytochrome P450 2D6, sequence (P10635 whole entry): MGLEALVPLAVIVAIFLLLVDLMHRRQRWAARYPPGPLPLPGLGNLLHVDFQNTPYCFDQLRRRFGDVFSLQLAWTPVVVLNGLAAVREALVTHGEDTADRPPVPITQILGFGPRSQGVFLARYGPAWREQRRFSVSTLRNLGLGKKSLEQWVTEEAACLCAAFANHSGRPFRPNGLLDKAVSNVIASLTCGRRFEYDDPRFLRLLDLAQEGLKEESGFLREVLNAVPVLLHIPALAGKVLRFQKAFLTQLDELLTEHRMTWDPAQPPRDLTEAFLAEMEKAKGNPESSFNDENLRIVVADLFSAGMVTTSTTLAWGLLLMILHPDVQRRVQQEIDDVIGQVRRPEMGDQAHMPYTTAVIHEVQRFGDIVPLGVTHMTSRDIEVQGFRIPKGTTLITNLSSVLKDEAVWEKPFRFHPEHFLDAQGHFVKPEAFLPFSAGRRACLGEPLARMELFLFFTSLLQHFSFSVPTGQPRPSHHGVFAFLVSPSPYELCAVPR
Interferon-induced, double-stranded RNA-activated protein kinase, sequence (P19525 whole entry): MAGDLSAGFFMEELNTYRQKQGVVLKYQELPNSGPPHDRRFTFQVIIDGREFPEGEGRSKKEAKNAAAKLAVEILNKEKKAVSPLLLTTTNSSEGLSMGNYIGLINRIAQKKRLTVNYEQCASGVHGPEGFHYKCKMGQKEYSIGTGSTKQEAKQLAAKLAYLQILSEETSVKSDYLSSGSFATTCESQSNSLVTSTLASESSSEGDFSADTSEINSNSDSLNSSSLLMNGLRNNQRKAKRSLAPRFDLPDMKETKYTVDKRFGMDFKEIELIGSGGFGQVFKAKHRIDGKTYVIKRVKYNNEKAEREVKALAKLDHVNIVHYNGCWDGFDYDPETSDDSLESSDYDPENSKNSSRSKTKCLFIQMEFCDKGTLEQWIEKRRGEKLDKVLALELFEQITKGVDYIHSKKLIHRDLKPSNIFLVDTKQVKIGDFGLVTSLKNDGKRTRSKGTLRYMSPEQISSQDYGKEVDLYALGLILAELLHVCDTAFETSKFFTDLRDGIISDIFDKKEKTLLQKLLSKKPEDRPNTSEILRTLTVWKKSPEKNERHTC
Eukaryotic translation initiation factor 2-alpha kinase 1, sequence (Q9BQI3 whole entry): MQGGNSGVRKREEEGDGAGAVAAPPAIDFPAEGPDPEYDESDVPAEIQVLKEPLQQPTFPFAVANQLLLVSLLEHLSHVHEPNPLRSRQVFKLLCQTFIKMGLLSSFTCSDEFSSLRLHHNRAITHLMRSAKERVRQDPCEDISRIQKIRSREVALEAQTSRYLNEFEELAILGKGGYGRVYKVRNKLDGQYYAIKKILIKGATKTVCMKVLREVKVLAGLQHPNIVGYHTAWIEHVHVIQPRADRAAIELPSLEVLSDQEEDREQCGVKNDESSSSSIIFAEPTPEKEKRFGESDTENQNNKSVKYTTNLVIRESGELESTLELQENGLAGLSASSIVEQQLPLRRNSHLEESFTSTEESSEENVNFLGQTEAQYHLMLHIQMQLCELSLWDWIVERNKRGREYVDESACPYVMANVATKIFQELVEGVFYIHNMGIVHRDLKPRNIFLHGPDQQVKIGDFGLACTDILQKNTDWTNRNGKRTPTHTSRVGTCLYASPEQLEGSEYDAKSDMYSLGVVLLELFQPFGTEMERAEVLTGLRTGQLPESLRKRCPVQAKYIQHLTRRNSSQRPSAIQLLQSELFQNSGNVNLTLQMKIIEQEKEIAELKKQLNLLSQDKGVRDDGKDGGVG
eIF-2-alpha kinase GCN2, sequence (Q9P2K8 whole entry): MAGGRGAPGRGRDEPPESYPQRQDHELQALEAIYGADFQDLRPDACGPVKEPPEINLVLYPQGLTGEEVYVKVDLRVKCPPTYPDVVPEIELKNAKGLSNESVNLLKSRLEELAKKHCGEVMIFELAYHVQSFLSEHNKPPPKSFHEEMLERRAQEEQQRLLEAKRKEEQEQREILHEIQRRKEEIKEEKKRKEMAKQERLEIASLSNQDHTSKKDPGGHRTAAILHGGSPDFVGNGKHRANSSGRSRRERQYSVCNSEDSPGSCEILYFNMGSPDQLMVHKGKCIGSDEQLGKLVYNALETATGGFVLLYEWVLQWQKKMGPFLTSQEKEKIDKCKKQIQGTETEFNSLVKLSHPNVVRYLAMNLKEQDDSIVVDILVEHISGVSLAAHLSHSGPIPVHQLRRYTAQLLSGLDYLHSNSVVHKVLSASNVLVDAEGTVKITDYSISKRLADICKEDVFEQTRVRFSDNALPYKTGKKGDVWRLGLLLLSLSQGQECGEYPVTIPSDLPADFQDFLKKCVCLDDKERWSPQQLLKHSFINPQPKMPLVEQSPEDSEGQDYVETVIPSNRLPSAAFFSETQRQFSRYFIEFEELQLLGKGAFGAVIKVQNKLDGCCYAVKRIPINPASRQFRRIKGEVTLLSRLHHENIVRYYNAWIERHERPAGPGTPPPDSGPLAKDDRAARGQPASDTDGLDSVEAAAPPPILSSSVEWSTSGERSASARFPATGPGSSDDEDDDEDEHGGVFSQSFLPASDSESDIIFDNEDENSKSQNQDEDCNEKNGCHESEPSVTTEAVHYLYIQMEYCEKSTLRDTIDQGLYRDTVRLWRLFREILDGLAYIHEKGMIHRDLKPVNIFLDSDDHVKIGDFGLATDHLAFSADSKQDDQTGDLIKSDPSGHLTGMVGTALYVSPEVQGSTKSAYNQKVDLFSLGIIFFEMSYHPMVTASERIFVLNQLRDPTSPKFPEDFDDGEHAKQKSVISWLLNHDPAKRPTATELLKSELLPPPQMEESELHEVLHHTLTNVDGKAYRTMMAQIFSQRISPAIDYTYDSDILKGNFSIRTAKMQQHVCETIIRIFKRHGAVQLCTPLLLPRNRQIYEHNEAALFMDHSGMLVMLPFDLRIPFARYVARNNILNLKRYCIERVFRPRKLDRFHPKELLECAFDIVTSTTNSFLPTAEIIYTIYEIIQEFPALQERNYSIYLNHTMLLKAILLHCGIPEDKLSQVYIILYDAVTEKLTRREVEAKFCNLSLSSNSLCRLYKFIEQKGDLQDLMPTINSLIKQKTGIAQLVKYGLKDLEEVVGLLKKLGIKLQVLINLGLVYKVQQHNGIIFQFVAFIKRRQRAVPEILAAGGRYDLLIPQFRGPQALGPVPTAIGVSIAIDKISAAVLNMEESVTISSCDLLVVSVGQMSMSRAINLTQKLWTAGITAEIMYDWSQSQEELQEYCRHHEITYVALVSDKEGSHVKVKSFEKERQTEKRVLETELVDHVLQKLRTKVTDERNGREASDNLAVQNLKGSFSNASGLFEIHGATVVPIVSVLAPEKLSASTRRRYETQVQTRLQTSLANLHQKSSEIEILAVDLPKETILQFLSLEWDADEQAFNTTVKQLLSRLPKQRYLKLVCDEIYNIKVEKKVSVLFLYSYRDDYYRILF

SMILES: Cn1cc(-c2ccc3c(c2)CCN3C(=O)Cc2cccc(C(F)(F)F)n2)c2c(N)ncnc21
- clearance [1]: 12.8 mL/min/kg
- IC50 [2]: 30 nM
- IC50 [3]: 0.5 nM

SMILES: Cn1cc(-c2ccc3c(c2F)CCN3C(=O)Cc2cccc(C(F)(F)F)n2)c2c(N)ncnc21
- IC50 [4]: 776 nM
- IC50 [5]: 359 nM
- IC50 [6]: 37 nM
- IC50 [7]: 7.4 µM
- IC50 [8]: 5.83 µM
- IC50 [9]: 9.09 µM
- IC50 [10]: 23.7 µM
- IC50 [11]: > 25 µM
- IC50 [12]: 19.2 µM
- IC50 [13]: > 25 µM
- clearance [1]: 8.9 mL/min/kg
- IC50 [2]: < 30 nM
- IC50 [3]: 0.5 nM

SMILES: Cc1ccn(CC(=O)N2CCc3cc(-c4cn(C)c5ncnc(N)c45)ccc32)n1
- IC50 [3]: 57.5 nM

SMILES: Cc1ccnn1CC(=O)N1CCc2cc(-c3cn(C)c4ncnc(N)c34)ccc21
- IC50 [3]: 16.6 nM

SMILES: Cc1cc(C)n(CC(=O)N2CCc3cc(-c4cn(C)c5ncnc(N)c45)ccc32)n1
- clearance [1]: 2.8 mL/min/kg
- IC50 [2]: 100 nM
- IC50 [3]: 1.9 nM

SMILES: Cc1cc(C)n(CC(=O)N2CCc3c2ccc(-c2cn(C)c4ncnc(N)c24)c3F)n1
- IC50 [5]: 99 nM
- IC50 [6]: 61 nM
- IC50 [7]: 20.5 µM
- IC50 [8]: > 25 µM
- IC50 [9]: > 25 µM
- IC50 [10]: > 25 µM
- IC50 [11]: > 25 µM
- IC50 [12]: > 25 µM
- IC50 [13]: > 25 µM
- clearance [1]: 1.9 mL/min/kg
- IC50 [2]: 30 nM
- IC50 [3]: 2.7 nM

— ChEMBL document CHEMBL2440009, “Discovery of GSK2656157: An Optimized PERK Inhibitor Selected for Preclinical Development” (ACS Med Chem Lett, 2013)
